In patent publication US8895746B2 (University of Central Florida Research Foundation, Inc., priority 2009, dated 2014):

Key:
[1] = system: Stat3; test: Intracellular Stat3 activation: EMSA of nuclear extracts from treated NIH3T3/v-Src, Panc-1 and MDA-MB-231 cells; format: cell-based, mouse, human; conditions: 50 μM, 24 h, Panc-1, MDA-MB-231
Method: Nuclear extract preparations and electrophoretic mobility shift assay (EMSA) were carried out as previously described (28,33). The ^32P-labeled oligonucleotide probes used were hSIE (high affinity sis-inducible element from the c-fos gene, m67 variant, 5′[…]; SEQ ID NO:5) that binds Stat1 and Stat3 (34) and MGFe (mammary gland factor element from the bovine β-casein gene promoter, 5′-[…]; SEQ ID NO:6) for Stat1 and Stat5 binding (35,36). Except where indicated, nuclear extracts were pre-incubated with compound for 30 min at room temperature prior to incubation with the radiolabeled probe for 30 min at 30° C. before subjecting to EMSA analysis. Bands corresponding to DNA-binding activities were scanned and quantified for each concentration of compound using ImageQuant and plotted as percent of control (vehicle) against concentration of compound, from which the IC50 values were derived, as previously reported (37).
Stat3 is constitutively activated in a variety of malignant cells, including human breast and pancreatic cancer cells (9, 10, 20).
Twenty-four hours after treatment, nuclear extracts were prepared from cells and subjected to Stat3 DNA-binding assay in vitro using the radiolabeled hSIE probe and analyzed by EMSA.

[2] = target: T1, Stat3:EGFR immunecomplex (Homo sapiens, UniProt P40763); test: Direct treatment of EGFR and Stat3 immunecomplexes from Panc-1 lysates, Western blotting; format: biochemical; conditions: 0-100 M, 3 h
T1 construct: precipitated from whole-cell lysates of untreated Panc-1 cells; endogenous in cells; host or cells: Panc-1 cells (immunoprecipitates from whole-cell lysates)
Method: (§1) Immunoprecipitation from whole-cell lysates and SDS/PAGE and Western blotting analysis were performed as previously described (33,38).
The EGFR levels in the immunecomplexes remained unchanged (FIG. 4B(ii), upper band). […] The Stat3 levels in the immunecomplexes remained unchanged (FIG. 4B(ii), i.p. Stat3, blot Stat3).

[3] = target: T2, His-tagged Stat3 (Mus musculus, UniProt P42227); test: Surface Plasmon Resonance analysis of binding to immobilized His-tagged Stat3; parameters: species or system murine
T2 construct: Coding regions for the murine Stat3 protein; made in house; host or cells: E. coli BL21(DE3)
Description: Coding regions for the murine Stat3 protein and Stat3 SH2 domain were amplified by PCR and cloned into vectors pET-44 Ek/LIC (Novagen) and pET SUMO (Invitrogen), respectively.
Clones were sequenced to verify the correct sequences and orientation. His-tagged recombinant proteins were expressed in BL21(DE3) cells, and purified on Ni-ion sepharose column.
SensiQ and its analysis software Qdat (ICX Technologies, Oklahoma City, Okla.) were used to analyze the interaction between agents and the Stat3 protein and to determine the binding affinity. Purified Stat3 was immobilized on a HisCap Sensor Chip by injecting 50 µg/ml of Stat3 onto the chip. […] The association and dissociation rate constants were calculated using the Qdat software. The ratio of the association and dissociation rate constants was determined as the affinity (KD).
To provide definitive evidence of direct binding to Stat3, biophysical studies were performed. H1s-tagged Stat3 protein (or SH2 domain; 50 ng) was immobilized on a Ni-NTA sensor chip surface for Surface Plasmon Resonance analysis of the binding of 531201.1066 as the analyte. Association and dissociation measurements were taken and the binding affinity of S31-201.1066 for Stat3 was determined using Qdat software.

[4] = system: NIH3T3/v-Src, MDA-MB-231 and Panc-1 cells; test: Viable cell numbers and growth (CyQuant, trypan blue exclusion), cells with aberrant Stat3; format: cell-based, mouse, human
[5] = system: Src (pY416Src), Jak1 (pJak), Shc (pShc), and Erk1/2 (pErk1/2); test: Western blot of phosphorylation of Src, Jak1, Shc, Erk1/2 in NIH3T3/v-Src and Panc-1 cells; format: cell-based, mouse, human
Method: as §1
We infer that […].

[6] = system: Stat3-dependent luciferase reporter (pLucTKS3); test: Stat3-dependent luciferase reporter in NIH3T3/v-Src; format: cell-based, mouse; conditions: NIH3T3/v-Src stably expressing pLucTKS3; 36-h treatment
Description: Positions of STATs:DNA complexes or proteins in gel are labeled; control lanes (0) represent nuclear extracts treated with 0.05% DMSO, or nuclear extracts or whole-cell lysates prepared from 0.05% DMSO-treated cells. Data are representative of 3-4 independent determinations. **—<0.01;
Normal mouse fibroblasts (NIH3T3) and counterparts transformed by v-Src (NIH3T3/v-Src), v-Ras (NIH3T3/v-Ras) or overexpressing the human epidermal growth factor (EGF) receptor (NIH3T3/hEGFR), and the human breast cancer (MDA-MB-231) and pancreatic cancer (Panc-1) cells have all been previously reported (15,27-29). The normal human pancreatic duct epithelial cells (HPDEC) was a kind gift from Dr. Tsao, (OCI, UHN-PMH, Toronto) (30), Stat3 knockout mouse embryonic fibroblasts was generously provided by Dr. Poli (31), and the mouse thymic epithelial stromal cells (TE-71) was a generous gift from Dr. Farr (32). The Stat3dependent reporter, pLucTKS3 and the v-Src transformed mouse fibroblasts that stably express pLucTKS3 have been previously reported (15, 33). Cells were grown in Dulbecco's modified Eagle's medium (DMEM) containing 10% heat-inactivated fetal bovine serum, or in the case of HPDEC, they were grown in Keratinocyte-SFM media supplemented with 0.2 ng EGF, 30 μg/ml bovine pituitary extract and containing antimycol.

[7] = increasing concentrations, 24-144 h

T1 sequence (P40763 2-770 limits assumed, one chain of several): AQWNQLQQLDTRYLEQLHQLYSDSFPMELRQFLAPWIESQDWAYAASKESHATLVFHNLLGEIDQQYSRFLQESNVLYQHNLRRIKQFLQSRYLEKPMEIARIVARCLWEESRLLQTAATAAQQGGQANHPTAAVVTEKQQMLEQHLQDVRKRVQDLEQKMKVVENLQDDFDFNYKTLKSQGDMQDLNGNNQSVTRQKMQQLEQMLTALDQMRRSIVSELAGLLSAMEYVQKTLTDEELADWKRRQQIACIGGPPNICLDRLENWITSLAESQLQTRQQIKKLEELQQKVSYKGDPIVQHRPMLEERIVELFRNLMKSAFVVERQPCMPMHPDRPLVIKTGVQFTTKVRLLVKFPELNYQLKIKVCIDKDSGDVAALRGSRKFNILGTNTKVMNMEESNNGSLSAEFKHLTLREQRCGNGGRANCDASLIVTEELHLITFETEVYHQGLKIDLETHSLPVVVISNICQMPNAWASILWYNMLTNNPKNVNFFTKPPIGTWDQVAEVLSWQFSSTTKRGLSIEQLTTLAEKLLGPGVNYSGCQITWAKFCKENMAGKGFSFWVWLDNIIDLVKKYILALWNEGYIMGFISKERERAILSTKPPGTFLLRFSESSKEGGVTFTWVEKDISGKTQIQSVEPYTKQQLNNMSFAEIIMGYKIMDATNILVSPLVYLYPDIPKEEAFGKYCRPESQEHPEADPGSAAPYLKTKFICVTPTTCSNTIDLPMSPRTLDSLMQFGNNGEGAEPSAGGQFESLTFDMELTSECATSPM
T2 sequence (P42227 whole entry): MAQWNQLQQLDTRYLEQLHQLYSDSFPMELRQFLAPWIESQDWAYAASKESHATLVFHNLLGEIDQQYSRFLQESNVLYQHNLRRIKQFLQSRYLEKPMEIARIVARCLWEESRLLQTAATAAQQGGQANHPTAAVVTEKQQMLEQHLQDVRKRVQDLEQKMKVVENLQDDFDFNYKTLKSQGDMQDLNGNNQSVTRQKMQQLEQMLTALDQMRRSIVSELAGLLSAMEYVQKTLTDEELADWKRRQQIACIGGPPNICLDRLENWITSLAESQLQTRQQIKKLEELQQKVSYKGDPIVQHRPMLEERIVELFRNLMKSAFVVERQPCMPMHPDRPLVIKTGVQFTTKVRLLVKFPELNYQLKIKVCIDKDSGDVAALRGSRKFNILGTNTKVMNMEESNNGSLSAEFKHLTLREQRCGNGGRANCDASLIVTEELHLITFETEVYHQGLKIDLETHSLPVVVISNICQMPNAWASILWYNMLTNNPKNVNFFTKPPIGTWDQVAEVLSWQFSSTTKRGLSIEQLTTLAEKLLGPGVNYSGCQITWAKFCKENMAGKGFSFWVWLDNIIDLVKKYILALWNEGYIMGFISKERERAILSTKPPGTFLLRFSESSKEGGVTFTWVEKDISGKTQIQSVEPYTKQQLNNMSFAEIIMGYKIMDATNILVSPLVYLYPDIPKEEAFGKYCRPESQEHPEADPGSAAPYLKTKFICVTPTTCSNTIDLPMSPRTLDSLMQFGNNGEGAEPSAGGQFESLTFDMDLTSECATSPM

Cc1ccc(S(=O)(=O)N(C)CC(=O)N(Cc2ccc(C3CCCCC3)cc2)c2ccc(C(=O)O)c(O)c2)cc1 [S3I-201.1066]
constitutive Stat3 activation in treated cells [1]: significant inhibition | EGFR levels in directly treated Stat3 immunecomplex [2]: strongly reduced EGFR levels | level of Stat3 present in directly treated EGFR immunecomplex [2]: dramatically diminished | levels of Shc or Grb 2 in directly treated EGFR immunecomplex [2]: no visible changes | Kd ([3]; affinity (KD) for Stat3 or the SH2 domain, SPR): 2300 nM | Kd ([3]; binding affinity, Ko / KD for Stat3, SPR, immobilized His-Stat3): 2.74 nM | concentrations at which antitumor cell effects occurred [4]: 30 to 50 µM | growth (trypan blue exclusion) [4, 7]: growth inhibited | viable cell numbers [4, 7]: significantly reduced viable cell numbers | pJak1 level in Panc-1 cells ([5]; 100 μM, Panc-1): disappearance of pJak1 level | inhibitory effect on phosphorylation of Src, Jak1, Erk1/2MAPK and Shc ([5]; 30-50 μM): minimum inhibitory effect | phosphorylation of Src, Jak1, Shc and Erk1/2 ([5]; 24 h, NIH3T3/v-Src and Panc-1): no significant effects | induction of the Stat3-dependent reporter [6]: significantly (p<0.01) repressed
